Measured values from patent EP0970046B1, “N-HYDROXY-2-(ALKYL, ARYL, OR HETEROARYL SULFANYL, SULFINYL OR SULFONYL)-3-SUBSTITUTED ALKYL, ARYL OR HETEROARYLAMIDES AS MATRIX METALLOPROTEINASE INHIBITORS” (Wyeth Holdings Corporation, priority 1997, dated 1998).

These molecules were tested against MMP 13 (Homo sapiens, UniProt P45452) (assay: MMP 13 inhibition (HTS; method not described)). Conditions: 0.2 µM, HTS.
Format: biochemical

| Molecule | MMP 13 % inhibition at 0.2 µM (HTS) [%] |
| --- | --- |
| (1-Hydroxycarbamoyl-propane-1-sulfinyl)-propionic acid hydroxyamide [Example 123] | 0 |

Same assay, conditions: read-out: MMP 13 % inhibition (HTS); HTS

| inhibition [%] | Molecule |
| --- | --- |
| 11 | CCCCCCC(C(=O)NO)S(=O)(=O)c1cccc2cccnc12 (stereo not shown) [Example 196, 2-(Quinoline-8-sulfonyl)-octanoic acid hydroxyamide] |

Same assay, conditions: read-out: MMP 13 % inhibition at 36 nM (HTS); 36 nM, HTS

| inhibition at 0.036 µM [%] | Molecule |
| --- | --- |
| -10 | CCCCCCC(Sc1ccc(OCc2ccccc2)cc1)C(=O)NO (stereo not shown) [Example 199, 2-(4-Benzyloxy-phenylsulfanyl)-octanoic acid hydroxyamide] |
| -18 | CCCCCCC(C(=O)NO)S(=O)(=O)c1cccc2cccnc12 (stereo not shown) [Example 196, 2-(Quinoline-8-sulfonyl)-octanoic acid hydroxyamide] |
| -39 | CCCCCCC(C(=O)NO)S(=O)(=O)CC1NC(=O)NC1=O (stereo not shown) [Example 198, 2-(2,5-Dioxo-imidazolidin-4-ylmethylsulfonyl)-octanoic acid hydroxyamide] |
| -45 | CCCCCCC(C(=O)NO)[S+]([O-])CC(=O)Nc1ccc2ccccc2c1 (stereo not shown) [Example 191, 2-(Naphthalen-2-ylcarbamoylmethanesulfinyl)-octanoic acid hydroxyamide] |
| -6 | CCCCCCC(C(=O)NO)S(=O)(=O)CCc1cccc[n+]1[O-] (stereo not shown) [Example 183, 2-[2-(1-Oxy-pyridin-2-yl)-ethanesulfonyl]-octanoic acid hydroxyamide] |
| 5 | CCCCCCC(C(=O)NO)[S+]([O-])c1nc2ccccc2[nH]1 (stereo not shown) [Example 177, 2-(2-Benzimidazol-2-ylsulfinyl)-octanoic acid hydroxyamide] |

| Molecule | inhibition at 0.036 µM [%] |
| --- | --- |
| CCCCCCC(C(=O)NO)S(=O)(=O)c1[nH]c2ccccc2[n+]1[O-] (stereo not shown) [Example 181, 2-(3-Oxy-1H-benzimidazole-2-sulfonyl)-octanoic acid hydroxyamide] | 6 |

Same assay, conditions: read-out: MMP 13 % inhibition at 0.2 µM (HTS); 0.2 µM, HTS

| inhibition at 0.2 µM [%] | Molecule |
| --- | --- |
| 71 | COC(=O)CCC(Sc1ccc(SC)cc1)C(=O)NO (stereo not shown) [Example 131, 4-Hydroxycarbamoyl-4-(4-methanesulfanyl-phenylsulfanyl)-butyric acid methyl ester] |
| 71 | CCCCCCC(Sc1ccc(OC)c(OC)c1)C(=O)NO (stereo not shown) [Example 165, 2-(3,4-Dimethoxybenzenesulfanyl)-octanoic acid hydroxyamide] |
| 79 | O=C(CCC(C(=O)NO)[S+]([O-])c1ccc(Br)cc1)NO (stereo not shown) [Example 135, 4-Hydroxycarbamoyl-4-(4-bromo-benzenesulfinyl)-butyric acid hydroxyamide] |
| 74 | CCCCCCC(C(=O)NO)S(=O)(=O)c1cccc(OC)c1 (stereo not shown) [Example 164, 2-(3-Methoxybenzenesulfonyl)-octanoic acid hydroxyamide] |
| 31 | N=C(N)NCCCC(Sc1cccc(F)c1)C(=O)NO (stereo not shown) [Example 155, 2-(3-fluorophenylsulfanyl)-5-guanidino-pentanoic acid hydroxyamide] |
| 90 | CC(=O)Nc1ccc([S+]([O-])C(Cc2ccccc2)C(=O)NO)cc1 (stereo not shown) [Example 129, 2-(4-Acetylamino-benzenesulfinyl)-N-hydroxy-3-phenyl-propionamide] |
| 19 | N=C(N)NCCCC(Sc1ccccc1Br)C(=O)NO (stereo not shown) [Example 157, 2-(2-Bromosulfanyl)-5-guanidino-pentanoic acid hydroxyamide] |
| 33 | N=C(N)NCCCC(C(=O)NO)[S+]([O-])c1ccccc1Br (stereo not shown) [Example 158, 2-(2-Bromosulfinyl)-5-guanidino-pentanoic acid hydroxyamide] |

| Molecule | inhibition at 0.2 µM [%] |
| --- | --- |
| CCCCCCCCC(C(=O)NO)[S+]([O-])c1cccc(OC)c1 (stereo not shown) [Example 141, 2-(3-Methoxy-benzenesulfinyl)decanoic acid hydroxamide] | 32 |
| CCCCCCCCC(C(=O)NO)S(=O)(=O)c1cccc(OC)c1 (stereo not shown) [Example 142, 2-(3-Methoxy-benzenesulfonyl)decanoic acid hydroxamide] | 69 |
| CCCCCCCCC(C(=O)NO)[S+]([O-])c1ccc([S+](C)[O-])cc1 (stereo not shown) [Example 144, 2-(4-methanesulfinyl-benzenesulfinyl)decanoic acid hydroxamide] | 38 |

Same assay, conditions: read-out: MMP 13 % inhibition at 0.36 mM (HTS)

| Molecule | inhibition at 360 µM [%] |
| --- | --- |
| CCCCCCC(C(=O)NO)S(=O)(=O)c1[nH]c2ccccc2[n+]1[O-] (stereo not shown) [Example 181, 2-(3-Oxy-1H-benzimidazole-2-sulfonyl)-octanoic acid hydroxyamide] | 35 |

Same assay, conditions: read-out: MMP 13 % inhibition at 3.6 mM (HTS)

| Molecule | inhibition at 3600 µM [%] |
| --- | --- |
| CCCCCCC(C(=O)NO)S(=O)(=O)c1[nH]c2ccccc2[n+]1[O-] (stereo not shown) [Example 181, 2-(3-Oxy-1H-benzimidazole-2-sulfonyl)-octanoic acid hydroxyamide] | 62 |
